Earlier results, collected in patent US20090155335A1, “NON-LEACHING NON-FOULING ANTIMICROBIAL COATINGS” (priority 2007, published 2009).

Test system: methicillin resistant and vancomycin intermediate-resistant Staphylococcus aureus
Details: Dacron graft soaked in dermaseptin solution, rat

For dermaseptin, the “efficacy of released dermaseptin against resistant S. aureus” value is given as “effective”.
